# Patent publication US6682892B2, “Method for treating herpes viruses” (priority 2000, dated 2004)
# How the values were obtained:
# HSV-1 F = assay: Plaque reduction assay, HSV-1 F; type: cell-based; conditions: Table 1, plaque reduction, Vero cells
# Method: (§1) Antiviral activity of compounds against herpesviruses such as HSV-1, HSV-2, or HCMV can be measured using plaque reduction assays. 0.1 ml of media containing approximately 50 PFU of virus is added to each well of a 24-well cell culture dish containing a confluent monolayer of cells (Vero cells for HSV-1 and HSV-2, HFF cells for HCMV). Compounds are dissolved in 100% DMSO and diluted in 100% DMSO as 200× stocks of the desired final drug concentration. Typically 5-6 two-fold dilutions are prepared for each compound. Dilutions of compounds are then added to media containing 0.8% CMC resulting in a final 1× drug concentration. After the virus-infected cells have incubated for 1 h at 37° C., the virus innoculum is removed and 1 ml of media containing 0.8% CMC and the various concentrations of compound is added to each well of the dish. The dish is incubated at 37° C. for approximately 2-3 days (HSV-1 and HSV-2) or 6-9 days (HCMV) to allow sufficient growth of virus to form plaques in the cell monolayer. Plaques can be observed and counted microscopically or by staining the cells with 0.1% crystal violet in 20% ethanol. […] Antiviral activity of a compound is expressed as the concentration of compound predicted to reduce the number of plaques in a well by 50% (IC50). The IC50 values are calculated by plotting the per cent inhibition vs. concentration of compound using EXCEL software for linear regression.
# (§2) A panel of viruses consisting of four strains of HSV-1 (KOS, F, DJL, Patton) and three strains of HSV-2 (MS, 35D, 186) are tested in a plaque reduction assay against four different 4-oxo-DHQ compounds (#1, 2, 4, 5 as shown in FIG. 1), and one 4-oxo-DHTP compound (#3 as shown in FIG. 1) and against Acyclovir. The six drugs inhibited replication of the seven virus strains with IC50 values ranging from 2-10 μM (Table 1). In order to select for 4-oxo-DHQ resistant mutants, HSV-1 strains KOS, F, and DJL along with HSV-2 strains 186 and MS are serially passaged in the presence of 20 uM compound 1. Following the seventh passage, 4-oxo-DHQ resistant virus from each strain are plaque purified three times and high-titer stocks are made.
# HSV-1 KOS-M1 (V823A) = assay: Plaque reduction assay, 4-oxo-DHQ resistant HSV-1 KOS-M1; type: cell-based; conditions: Table 2, mutant V823A; read-out: IC50 (uM), HSV-1 Kos-M1
# Method: as §1
# Vero cells are plated out at a density of 3.5×10^5 cells per well in a six well tissue culture plate. Cells are infected with HSV-1 KOS at a multiplicity of infection (moi) of 0.1 pfu/cell and 1 h post infection the cells are overlayed with 3 ml media containing 20 uM of a 4-oxo-DHQ. Cultures are incubated for 20 h at 37° C., freeze/thawed to release cell-associated virus, and 0.1 ml of culture is used to infect a new monolayer of Vero cells (one passage). Serial passage is repeated seven times in the presence of 20 uM drug. Virus isolates are then plaque purified three times prior to preparation of stocks. 4-oxo-DHQ resistant HSV-1 and HSV-2 may also be selected by the marker transfer method described below using wild-type HSV DNA and the corresponding mutant HSV polymerase gene.
# as §2
# [1] = target: T1, HCMV V823A/V824L polymerase (Human cytomegalovirus, UniProt P08546, V823A/V824L); assay: In vitro polymerase assay, mutant HCMV polymerase V823A/V824L; type: biochemical
# T1 construct: made in house
# T1 sequence (P08546 1-1242 V823A/V824L): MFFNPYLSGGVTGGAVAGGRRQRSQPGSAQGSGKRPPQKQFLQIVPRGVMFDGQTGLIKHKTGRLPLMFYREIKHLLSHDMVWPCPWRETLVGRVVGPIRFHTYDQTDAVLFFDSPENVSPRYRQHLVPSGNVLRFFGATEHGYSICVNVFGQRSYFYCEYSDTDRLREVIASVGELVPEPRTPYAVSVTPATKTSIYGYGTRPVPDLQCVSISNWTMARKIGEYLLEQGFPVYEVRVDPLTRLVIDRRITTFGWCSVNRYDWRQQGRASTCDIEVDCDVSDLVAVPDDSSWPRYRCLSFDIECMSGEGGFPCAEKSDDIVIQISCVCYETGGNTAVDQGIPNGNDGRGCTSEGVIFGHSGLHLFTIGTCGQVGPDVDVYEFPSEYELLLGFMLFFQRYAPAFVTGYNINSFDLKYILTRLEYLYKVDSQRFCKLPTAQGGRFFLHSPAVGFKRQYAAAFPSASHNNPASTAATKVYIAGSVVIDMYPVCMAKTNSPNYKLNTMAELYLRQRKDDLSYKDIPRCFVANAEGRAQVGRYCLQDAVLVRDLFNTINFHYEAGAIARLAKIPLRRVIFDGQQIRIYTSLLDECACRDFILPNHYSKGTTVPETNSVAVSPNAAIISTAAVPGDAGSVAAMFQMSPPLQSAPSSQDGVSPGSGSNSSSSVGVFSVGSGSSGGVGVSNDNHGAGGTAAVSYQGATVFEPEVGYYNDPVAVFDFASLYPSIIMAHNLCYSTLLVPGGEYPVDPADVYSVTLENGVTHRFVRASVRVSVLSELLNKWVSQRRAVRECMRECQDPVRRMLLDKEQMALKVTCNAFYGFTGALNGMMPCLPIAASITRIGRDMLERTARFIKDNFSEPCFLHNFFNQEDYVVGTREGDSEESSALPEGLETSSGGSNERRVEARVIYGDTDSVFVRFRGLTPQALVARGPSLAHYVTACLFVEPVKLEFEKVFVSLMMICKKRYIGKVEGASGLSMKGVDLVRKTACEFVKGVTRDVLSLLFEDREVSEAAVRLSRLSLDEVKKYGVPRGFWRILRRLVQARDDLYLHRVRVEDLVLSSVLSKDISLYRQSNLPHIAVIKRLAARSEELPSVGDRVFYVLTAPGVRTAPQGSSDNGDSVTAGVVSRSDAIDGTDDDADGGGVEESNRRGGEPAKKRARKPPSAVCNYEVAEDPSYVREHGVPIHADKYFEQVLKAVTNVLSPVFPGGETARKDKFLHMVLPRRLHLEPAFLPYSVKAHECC
# Method: In order to select for a 4-oxo-DHQ HCMV resistant mutant, virus (strain AD169) is serially passaged in the presence of 20 uM a 4-oxo-DHQ. […] In order to determine if both valines need to be changed in order to confer resistance to the 4-oxo-DHQ's, in vitro polymerase assays are done using mutant HCMV polymerases containing either V823A or V823A plus V824L (Table 3).
compound,measurement,setting,value
Cn1cc(C(=O)NCc2ccc(Cl)cc2)c(=O)c2cc(/C=C\CO)cc(F)c21 [Compound 1],IC50,HSV-1 F,2.5 µM
same,IC50,HSV-1 KOS-M1 (V823A),> 20 µM
same,IC50,[1]; Table 3,42.9 µM
same,"increase in resistance, HCMV V823A/V824L polymerase",[1]; relative to wild type,"*Mutation of the amino acid from valine to alanine and amino acid 824 from valine to leucine results in an 9-fold increase in resistance, relative to wild type."
